This assay addresses T1, sSema 4D (Homo sapiens, UniProt Q92854).
T1 construct: purchased Novoprotein Ltd. (Suzhou, China)
T1 sequence (Q92854 22-734 limits assumed): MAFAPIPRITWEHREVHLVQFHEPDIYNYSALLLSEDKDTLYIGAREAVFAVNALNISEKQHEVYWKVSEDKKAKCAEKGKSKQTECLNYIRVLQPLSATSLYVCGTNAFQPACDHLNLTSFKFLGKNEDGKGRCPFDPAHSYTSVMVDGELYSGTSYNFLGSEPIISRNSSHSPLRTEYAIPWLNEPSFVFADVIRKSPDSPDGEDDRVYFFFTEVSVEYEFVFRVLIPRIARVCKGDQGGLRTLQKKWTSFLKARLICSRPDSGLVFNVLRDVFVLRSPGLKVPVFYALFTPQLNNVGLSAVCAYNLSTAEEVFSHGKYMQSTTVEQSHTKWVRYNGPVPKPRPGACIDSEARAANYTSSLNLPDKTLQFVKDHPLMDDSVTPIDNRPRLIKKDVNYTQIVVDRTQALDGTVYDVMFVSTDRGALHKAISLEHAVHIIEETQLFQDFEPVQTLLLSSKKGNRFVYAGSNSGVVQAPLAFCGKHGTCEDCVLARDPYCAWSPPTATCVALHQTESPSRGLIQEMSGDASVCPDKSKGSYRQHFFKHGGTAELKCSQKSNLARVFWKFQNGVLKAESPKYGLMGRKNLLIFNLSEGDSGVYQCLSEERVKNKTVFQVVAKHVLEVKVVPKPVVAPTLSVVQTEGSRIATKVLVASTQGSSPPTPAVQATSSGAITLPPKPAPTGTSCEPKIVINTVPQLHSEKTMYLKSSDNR
In words: SPRi binding affinity of TPs to sSema 4D. The settings on record: SPRi (surface plasmon resonance imaging). The protocol: To carry out the library screening, we first labeled the sSema4D with fluorescein isothiocyanate isomer (FITC), as shown in Figure 2E. Next, ≈10^6 beads library was incubated with FITC‐labeled sSema4D for 6 hours. The beads were thoroughly washed with DMF, water and methanol. Finally, under the fluorescence microscope, the beads with […] to sSema4D or FITC‐labeled sSema4D through noncovalent bonding were identified in Figure 2F. We selected twelve strongest putative fluorescent beads by physical separation. Subsequently, the corresponding peptides were cleaved off with BrCN from beads and analyzed by automatic Edman sequencing. The structures and sequence of transformable peptides (TPs) were determined and summarized (Figure S2, Supporting Information). TP‐1 to TP‐12 were resynthesized into solid phase and purified by high performance liquid chromatography (HPLC). The binding affinity of TPs toward sSema 4D was measured by enzyme‐linked immunosorbent assay (ELISA) and surface plasmon resonance imaging (SPRi). […] TP‐2 and TP‐7 were selected as the candidate TP binding sSema 4D to construct SSP. Subsequent SSP monomers (SSP‐1, sequence: C16‐FFVLK‐KQKRPRH; SSP‐2 C16‐FFVLK‐KNKAAKG) were synthesized and characterized by HPLC and Matrix‐assisted laser desorption/ionization time‐of‐flight mass spectrometry (MALDI‐TOF‐MS).
(Surface plasmon resonance follows binding to a sensor surface in real time, without labels.)

Data on 3 compounds can be found in article PMC9875641, “Ophthalmic Solution of Smart Supramolecular Peptides to Capture Semaphorin 4D against Diabetic Retinopathy” (Advanced Science, 2022).

pKd: −log10 of the molar value. Where a SMILES comes first, the peptide text is derived from it.

The term pKd denotes the negative decadic logarithm of the Kd, by convention in mol/L. Higher therefore signals a small Kd.

As for `C[C@H](NC(=O)[C@H](C)NC(=O)[C@H](CCCCN)NC(=O)[C@H](CC(N)=O)NC(=O)[C@@H](N)CCCCN)C(=O)N[C@@H](CCCCN)C(=O)NCC(=O)O` [TP-2] (H-KNKAAKG-OH), the pKd is 7.38.
In turn, `N=C(N)NCCC[C@H](NC(=O)[C@@H]1CCCN1C(=O)[C@H](CCCNC(=N)N)NC(=O)[C@H](CCCCN)NC(=O)[C@H](CCC(N)=O)NC(=O)[C@@H](N)CCCCN)C(=O)N[C@@H](Cc1c[nH]cn1)C(=O)O` [TP-7] (H-KQKRPRH-OH) gave a pKd of 7.84.
`CC(C)[C@H](NC(=O)[C@H](CCCNC(=N)N)NC(=O)[C@H](C)NC(=O)[C@@H]1CCCN1C(=O)[C@H](C)NC(=O)[C@@H](N)CCCCN)C(=O)NCC(=O)O` [TP-10] (H-KAPARVG-OH) showed a pKd of 7.19.
